Calls of active or inactive are those of the source. No cut-off for these calls is given here.
Key:
SW-620 = experiment: Antiproliferative activity against human SW620 cells assessed as reduction in cell viability incubated for 72 hrs by MTT assay; type: functional, cell-based; conditions: SW-620, 72 h
HepG2 = experiment: Antiproliferative activity against human HepG2 cells assessed as reduction in cell viability incubated for 72 hrs by MTT assay; type: functional, cell-based; conditions: HepG2, 72 h
HCT-116 = experiment: Antiproliferative activity against human HCT-116 cells assessed as reduction in cell viability incubated for 72 hrs by MTT assay; type: functional, cell-based; conditions: HCT-116, 72 h
MCF7 [1] = experiment: Antiproliferative activity against human MCF7 cells assessed as reduction in cell viability incubated for 72 hrs by MTT assay; type: functional, cell-based; conditions: MCF7, 72 h
[2] = Antiproliferative activity against human HEK293T cells assessed as reduction in cell viability incubated for 72 hrs by MTT assay; type: toxicity, cell-based, HEK-293T
[3] = Selectivity index, ratio of IC50 for antiproliferative activity against human HEK293T cells to IC50 for antiproliferative activity against human MCF7 cells; type: toxicity, cell-based; conditions: HEK293T cells versus MCF7 cells, read-out: Ratio IC50
Plasmodium falciparum [4] = experiment: Antiplasmodial activity against erythrocytic stage of chloroquine-sensitive Plasmodium falciparum 3D7 assessed as inhibition of parasite growth incubated for 3 days by HRP2-ELISA; type: functional, organism-based; conditions: 3D7, 72 h
Plasmodium falciparum [5] = experiment: Antiplasmodial activity against erythrocytic stage of chloroquine-resistant Plasmodium falciparum Dd2 assessed as inhibition of parasite growth incubated for 3 days by HRP2-ELISA; type: functional, organism-based; conditions: Dd2, 72 h
[6] = Selectivity index, ratio of IC50 for antiproliferative activity against human HEK293T cells to IC50 for antiplasmodial activity against erythrocytic stage of chloroquine-sensitive Plasmodium falciparum 3D7; type: toxicity, cell-based; conditions: read-out: Ratio IC50
Plasmodium falciparum [7] = experiment: Resistance index, ratio of IC50 for antiplasmodial activity against erythrocytic stage of chloroquine-resistant Plasmodium falciparum Dd2 to IC50 for antiplasmodial activity against erythrocytic stage of chloroquine-sensitive Plasmodium falciparum 3D7; type: functional
Plasmodium falciparum [8] = experiment: Gametocytocidal activity against gametocytes of Plasmodium falciparum NF54 assessed as inhibition of ATP production measured after 48 hrs by Bac-TiterGlo analysis; type: functional, organism-based; conditions: NF54, 48 h
Calf thymus DNA [9] = experiment: Binding affinity to calf thymus DNA assessed as binding constant by UV-Visible absorption spectroscopic analysis; conditions: Bos taurus
RNA [10] = experiment: Binding affinity to double stranded RNA (unknown origin) assessed as binding constant by UV-Visible absorption spectroscopic analysis; type: nucleic-acid assay
Calf thymus DNA [11] = experiment: Binding affinity to calf thymus DNA assessed as thermal stabilization by thermal denaturation based UV-Visible absorption spectroscopic analysis; conditions: Bos taurus
RNA [12] = experiment: Binding affinity to double stranded RNA (unknown origin) assessed as thermal stabilization by thermal denaturation based UV-Visible absorption spectroscopic analysis; type: nucleic-acid assay
dsDNA [13] = experiment: Binding affinity to double stranded DNA (unknown origin) by CD spectroscopic analysis; type: nucleic-acid assay
RNA [14] = experiment: Binding affinity to double stranded RNA (unknown origin) by CD spectroscopic analysis; type: nucleic-acid assay
[15] = Drug uptake in human MCF7 cells at 10 uM incubated for 30 mins by fluorescence microscopic analysis; type: ADME, cell-based; conditions: mcf7, 0.5 h
dsDNA [16] = experiment: Binding affinity to double stranded DNA (unknown origin) assessed as increase in fluorescence intensity by fluorescence quenching analysis; type: nucleic-acid assay
RNA [17] = experiment: Binding affinity to double stranded RNA (unknown origin) assessed as increase in fluorescence intensity by fluorescence quenching analysis; type: nucleic-acid assay
[18] = Drug uptake in human MCF7 cells at 10 uM incubated for 1 hr by fluorescence microscopic analysis; type: ADME, cell-based; conditions: mcf7, 1 h
Plasmodium berghei [19] = experiment: Antiplasmodial activity against hepatic stage of Plasmodium berghei sporozoites infected in human Huh-7 cells assessed as reduction in parasite growth at 1 uM incubated for 1 hr by bioluminescence assay; type: functional, organism-based
Plasmodium berghei [20] = experiment: Antiplasmodial activity against hepatic stage of Plasmodium berghei sporozoites infected in human Huh-7 cells assessed as reduction in parasite growth at 10 uM incubated for 1 hr by bioluminescence assay; type: functional, organism-based
Plasmodium berghei [21] = experiment: Antiplasmodial activity against hepatic stage of Plasmodium berghei sporozoites infected in human Huh-7 cells assessed as inhibition of parasite growth incubated for 1 hr by bioluminescence assay; type: functional, organism-based; conditions: Huh-7, 1 h
Huh-7 [22] = experiment: Cytotoxicity against human Huh-7 cells infected with Plasmodium berghei sporozoites at 1 uM by alamar blue staining based assay; type: functional, cell-based
Huh-7 [23] = experiment: Cytotoxicity against human Huh-7 cells infected with Plasmodium berghei sporozoites at 10 uM by alamar blue staining based assay; type: functional, cell-based
[24] = Drug uptake in human MCF7 cells at 1 uM incubated for 30 mins by Mitotracker Deep Red staining confocal microscopic analysis; type: ADME, cell-based; conditions: mcf7, 0.5 h
MCF7 [25] = experiment: Induction of cell cycle arrest in human MCF7 cells assessed as increase in accumulation of cells at G1 phase at 0.75 uM measured after 24 hrs by propidium iodide/RNAse A staining based cell sorter analysis; type: functional
MCF7 [26] = experiment: Induction of cell cycle arrest in human MCF7 cells assessed as decrease in accumulation of cells at S phase at 0.75 uM measured after 24 hrs by propidium iodide/RNAse A staining based cell sorter analysis; type: functional
MCF7 [27] = experiment: Induction of cell cycle arrest in human MCF7 cells assessed as increase in accumulation of cells at G1 phase at 0.75 uM measured after 48 hrs by propidium iodide/RNAse A staining based cell sorter analysis; type: functional
MCF7 [28] = experiment: Induction of cell cycle arrest in human MCF7 cells assessed as increase in accumulation of cells at G2/M phase at 0.75 uM measured upto 48 hrs by propidium iodide/RNAse A staining based cell sorter analysis; type: functional

Q: With `COc1cc(NC(C)CCCNC(=O)NCCn2c3cc(OC)ccc3c3ccnc(C)c32)c2ncccc2c1` (centres undefined) as the compound, how does the IC50 (SW-620) read?
A: 9.93 µM

Q: What about the IC50 (HepG2) of the same compound?
A: 12.3 µM

Q: And the IC50 (HCT-116)?
A: 10.6 µM

Q: What about the IC50 (MCF7 [1]) of the same compound?
A: 9.15 µM

Q: And the IC50 at 72 h [2]?
A: 12.7 µM

Q: What about the selectivity ratio [3] of the same compound?
A: 1.39

Q: And the IC50 (Plasmodium falciparum [4])?
A: 0.702 µM

Q: What about the IC50 (Plasmodium falciparum [5]) of the same compound?
A: 1.1 µM

Q: And the selectivity ratio [6]?
A: 18.1

Q: What about the “Ratio IC50” value (Plasmodium falciparum [7]) of the same compound?
A: 1.57

Q: Which IC50 (Plasmodium falciparum [8]) does the source give for `CC[C@H](C)[C@H](NC(=O)[C@H]([C@@H](C)CC)N(C)C(C)=O)C(=O)N[C@H](C(=O)N[C@@H](CC(C)C)C(=O)[C@@]1(C)CO1)[C@@H](C)O` [EPOXOMYCIN] here?
A: 0.0167 µM

Q: With `COc1cc(NC(C)CCCn2cc(COc3ccc4c(c3)[nH]c3c(C)nccc34)nn2)c2ncccc2c1` (centres undefined) as the compound, how does the IC50 (SW-620) read?
A: 6.99 µM

Q: What about the IC50 (HepG2) of the same compound?
A: 7.87 µM

Q: And the IC50 (HCT-116)?
A: 7.31 µM

Q: And the IC50 (MCF7 [1])?
A: 5.93 µM

Q: And the IC50 at 72 h [2]?
A: 7.62 µM

Q: And the selectivity ratio [3]?
A: 1.28

Q: And the IC50 (Plasmodium falciparum [4])?
A: 0.211 µM

Q: What about the IC50 (Plasmodium falciparum [5]) of the same compound?
A: 0.353 µM

Q: What about the selectivity ratio [6] of the same compound?
A: 36

Q: And the “Ratio IC50” value (Plasmodium falciparum [7])?
A: 1.67

Q: What does the source list for `COc1cc(NC(C)CCCNC(=O)NCCOc2ccc3[nH]c4c(C)nccc4c3c2)c2ncccc2c1` (centres undefined)?
A: IC50 (SW-620): 10.6 µM; IC50 (HepG2): 10.9 µM; IC50 (HCT-116): 7.79 µM; IC50 (MCF7 [1]): 14.2 µM; IC50 at 72 h [2]: 12 µM; selectivity ratio [3]: 0.84; IC50 (Plasmodium falciparum [4]): 10.7 µM; IC50 (Plasmodium falciparum [5]): 8.84 µM; selectivity ratio [6]: 1.1; Ratio IC50 (Plasmodium falciparum [7]): 0.83

Q: Which results are given for `COc1cc(NC(C)CCCn2cc(COc3ccc4[nH]c5c(C)nccc5c4c3)nn2)c2ncccc2c1` (centres undefined)?
A: IC50 (SW-620): 8.94 µM; IC50 (HepG2): 6.67 µM; IC50 (HCT-116): 18.2 µM; IC50 (MCF7 [1]): 9.45 µM; IC50 at 72 h [2]: 25.2 µM; selectivity ratio [3]: 2.67; log Ks (Calf thymus DNA [9]): 3.4; log Ks (RNA [10]): 3.4; IC50 (Plasmodium falciparum [4]): 0.425 µM; IC50 (Plasmodium falciparum [5]): 0.895 µM; Activity (Calf thymus DNA [11]): inactive; Ratio IC50 (Plasmodium falciparum [7]): 2.11; Activity (RNA [12]): inactive; Activity (dsDNA [13]): inactive; Activity (RNA [14]): inactive; Drug uptake [15]: Active; Activity (dsDNA [16]): inactive; Activity (RNA [17]): inactive

Q: With `COc1cc(NC(C)CCCn2cc(COc3ccc4[nH]c5c(C)nccc5c4c3)nn2)c2ncccc2c1-c1c(OC)cc(NC(C)CCCn2cc(COc3ccc4[nH]c5c(C)nccc5c4c3)nn2)c2ncccc12` (centres undefined) as the compound, how does the IC50 (SW-620) read?
A: > 50 µM

Q: And the IC50 (HepG2)?
A: > 50 µM

Q: And the IC50 (HCT-116)?
A: > 50 µM

Q: And the IC50 (MCF7 [1])?
A: > 100 µM

Q: And the IC50 at 72 h [2]?
A: > 50 µM

Q: And the log Ks (Calf thymus DNA [9])?
A: 5.8

Q: What about the IC50 (Plasmodium falciparum [4]) of the same compound?
A: 0.0154 µM

Q: And the IC50 (Plasmodium falciparum [5])?
A: 0.0172 µM

Q: What about the selectivity ratio [6] of the same compound?
A: > 3250

Q: What about the Activity (Calf thymus DNA [11]) of the same compound?
A: inactive

Q: What about the “Ratio IC50” value (Plasmodium falciparum [7]) of the same compound?
A: 1.12

Q: And the Activity (RNA [12])?
A: inactive

Q: What about the Activity (dsDNA [13]) of the same compound?
A: inactive

Q: And the Activity (RNA [14])?
A: inactive

Q: What about the Drug uptake [18] of the same compound?
A: Not Active

Q: And the Activity (Plasmodium berghei [19])?
A: Active

Q: And the Activity (Plasmodium berghei [20])?
A: Active

Q: And the IC50 (Plasmodium berghei [21])?
A: 0.036 µM

Q: And the Activity (Huh-7 [22])?
A: inactive

Q: What about the Activity (Huh-7 [23]) of the same compound?
A: inactive

Q: What about the IC50 (Plasmodium falciparum [8]) of the same compound?
A: 0.0905 µM

Q: And the Activity (dsDNA [16])?
A: Active

Q: And the Activity (RNA [17])?
A: Active

Q: What does the source list for `COc1cc(NC(C)CCCNC(=O)NCCOc2ccc3c(c2)[nH]c2c(C)nccc23)c2ncccc2c1` (centres undefined)?
A: IC50 (SW-620): 7.59 µM; IC50 (HepG2): 7.97 µM; IC50 (HCT-116): 7.71 µM; IC50 (MCF7 [1]): 8.87 µM; IC50 at 72 h [2]: 7.63 µM; selectivity ratio [3]: 0.86; IC50 (Plasmodium falciparum [4]): 6.77 µM; IC50 (Plasmodium falciparum [5]): 8.07 µM; selectivity ratio [6]: 1.1; Ratio IC50 (Plasmodium falciparum [7]): 1.2

Q: What does the source list for `COc1cc(NC(C)CCCNC(=O)NCc2nccc3c2[nH]c2ccccc23)c2ncccc2c1` (centres undefined)?
A: IC50 (SW-620): 2.48 µM; IC50 (HepG2): 0.69 µM; IC50 (HCT-116): 0.94 µM; IC50 (MCF7 [1]): 1.43 µM; IC50 at 72 h [2]: 0.68 µM; selectivity ratio [3]: < 0.48; log Ks (Calf thymus DNA [9]): 5.5; log Ks (RNA [10]): 4.2; IC50 (Plasmodium falciparum [4]): 4.7 µM; IC50 (Plasmodium falciparum [5]): 6.13 µM; selectivity ratio [6]: 0.1; Activity (Calf thymus DNA [11]): inactive; Ratio IC50 (Plasmodium falciparum [7]): 1.31; Activity (RNA [12]): inactive; Activity (dsDNA [13]): inactive; Activity (RNA [14]): inactive; Drug uptake [24]: Not Active; Activity (MCF7 [25]): Active; Activity (MCF7 [26]): Active; Activity (MCF7 [27]): Active; Activity (MCF7 [28]): inactive; Activity (Plasmodium berghei [19]): Active; Activity (Plasmodium berghei [20]): Active; Activity (Huh-7 [22]): Active; Activity (Huh-7 [23]): Active; Activity (dsDNA [16]): Active; Activity (RNA [17]): Active
